In one series the test system is U937 cells. In words: U937 TNF/zVAD Cytotoxicity Cell Assay. The format is cell-based. The note with it: Homo sapiens, U-937; TNFα 10 ng/mL + Z-VAD FMK 20 μM, 16-20 hours; read-out: U937 TNF/zVAD Induced Cytotoxicity IC50. On the procedure:
Compounds were tested for their ability to prevent TNF induced necroptosis in U937 cells. Treatment with TNF and the caspase inhibitor zVAD-FMK results in the activation and phosphorylation of RIPK1 and subsequent phosphorylation of RIPK3 and MLKL (Mixed Lineage Kinase Domain Like Pseudokinase), leading to induction of necroptotic cell death that is measured as a reduction in cell viability. Similar U937 assay protocols have been previously described; see, e.g., Harris et al., ACS Med. Chem. Letters (2013) 4:1238-1243 and Supplementary Information.
Test compounds were solvated in dimethyl sulfoxide (DMSO) and 3-fold serially diluted from 10 uM to 0.0005 uM with technical duplicates into an empty 384 well plate. U937 cells were resuspended at a concentration of 500,000 cells/mL in fresh RPMI (Roswell Park Memorial Institute) 1640 growth medium containing 10% heat inactivated fetal bovine serum (FB1S) and seeded into a 384 well plate containing compounds and incubated for 1 hour at 37° C. Following incubation, the cells were challenged with TNFα (final concentration of 10 ng/mL) and Z-VAD FMK (N-Benzyloxycarbonyl-Val-Ala-Asp(O-Me) fluoromethyl ketone; final concentration of 20 μM) for 16-20 hours at 37° C. Following the incubation with TNFα/Z-VAD, cells were lysed with Cell Titer-Glo and incubated for 5-10 minutes. The plate was then read on an Envision plate reader. Data was normalized and analyzed with Studies from Dotmatics.

Series [1] can be described thus: Prodrug bioconversion in intestinal S9 cell fractions. The format is in vitro ADME. As to the method: (§1) Phosphatase enzymes are […] expressed with unique tissue specific isoforms and are key catalysts in the conversion of phosphate-containing prodrugs. To determine if exemplary phosphate prodrug compounds of the invention are enzymatically converted to the parent molecule across relevant species, the prodrug compounds were incubated with intestinal S9 cell fractions obtained from mouse, rat, dog, monkey, and human.
[…] Incubations were conducted in the absence and presence of 1 mM sodium orthovanadate, a phosphatase inhibitor. Prodrug depletion and parent formation were monitored by LC-MS/MS and normalized to internal standard as the analyte peak area ratio.

Assay in series [2]: as above
The format is in vitro ADME. The note with it: 0.25 mg/mL. As to the method: as §1
Phosphate prodrugs were incubated (1 μM) for up to 2 hours in Tris-Cl buffer (pH 7.4) containing 3 mM magnesium chloride, intestinal S9 protein ([…] (ms, rat, hu, Table F) from mouse, rat, dog, monkey or human. Incubations were conducted in the absence and presence of 1 mM sodium orthovanadate, a phosphatase inhibitor. Prodrug depletion and parent formation were monitored by LC-MS/MS and normalized to internal standard as the analyte peak area ratio.

Where [3] appears, read: Human, 0.01 mg/mL S9 protein, Table F.
[4] abbreviates: Human, 0.25 mg/mL S9 protein, Table F.
The mark [5] stands for this setting: Human, 0.25 mg/mL, Experiment 1.
Where [6] appears, read: Human, 0.25 mg/mL, Experiment 2.
The mark [7] stands for this setting: Human, 0.25 mg/mL, Experiment 3.
Setting [8] is: Human, 0.25 mg/mL, Mean of 3 experiments.
[9] abbreviates: Mouse, 0.01 mg/mL S9 protein, Table F.
The mark [10] stands for this setting: Mouse, 0.25 mg/mL S9 protein, Table F.
Setting [11] is: Mouse, 0.25 mg/mL, Experiment 1.
[12] abbreviates: Mouse, 0.25 mg/mL, Experiment 2.
Where [13] appears, read: Mouse, 0.25 mg/mL, Experiment 3.
Where [14] appears, read: Mouse, 0.25 mg/mL, Mean of 3 experiments.
Setting [15] is: Rat, 0.01 mg/mL S9 protein, Table F.
Setting [16] is: Rat, 0.25 mg/mL S9 protein, Table F.
Setting [17] is: Rat, 0.25 mg/mL, Mean of 3 experiments.

The values below come from patent publication US11767310B2, “Nicotinamide RIPK1 inhibitors” (AbbVie Inc., priority 2021, dated 2023).

Molecules are shown by their SMILES. Marks after values point to notes of the source that are not given here.

With `Cc1ncc(C(=O)N(C)C[C@@H](O)Cc2ccccc2)cc1C#Cc1cnn(C)c1` [Example 14, (S)-N-(2-hydroxy-3-phenylpropyl)-N,6-dimethyl-5-((1-methyl-1H-pyrazol-4-yl)ethynyl)nicotinamide], the IC50 in the series with U937 cells amounted to 18 nM.
Turning to `CN(C[C@H](Cc1ccccc1)OC(=O)CN)C(=O)c1cncc(C#Cc2cnn(C)n2)c1` [Example 25, (S)-1-(N-methyl-5-((2-methyl-2H-1,2,3-triazol-4-yl)ethynyl)nicotinamido)-3-phenylpropan-2-yl 2-aminoacetate, hydrochloric acid], the “Clint (prodrug disappearance)” value in series [1] (setting [3]) is given as 378.1 μL/min/mg intestinal S9 protein; in series [1] (setting [4]), 410 μL/min/mg intestinal S9 protein; in series [1] (setting [5]), 272 μL/min/mg intestinal S9 protein; in series [1] (setting [6]), 294 μL/min/mg intestinal S9 protein; in series [1] (setting [7]), 293 μL/min/mg intestinal S9 protein; in series [1] (setting [8]) it was 286 μL/min/mg intestinal S9 protein. In addition, the “Clint (prodrug disappearance)” value in series [1] (setting [9]) is 6821.9 μL/min/mg intestinal S9 protein; in series [1] (setting [10]), >1640.7* μL/min/mg intestinal S9 protein; in series [1] (setting [11]), >480* μL/min/mg intestinal S9 protein; in series [1] (setting [12]), >480* μL/min/mg intestinal S9 protein; in series [1] (setting [13]), >480* μL/min/mg intestinal S9 protein; in series [1] (setting [14]) it was >480* μL/min/mg intestinal S9 protein. The “Clint (prodrug disappearance)” value in series [1] (setting [15]) is 1087.6 μL/min/mg intestinal S9 protein; in series [1] (setting [16]) it was 393.8 μL/min/mg intestinal S9 protein; in series [1] (Rat, 0.25 mg/mL, Experiment 1), 217 μL/min/mg intestinal S9 protein; in series [1] (Rat, 0.25 mg/mL, Experiment 2), 318 μL/min/mg intestinal S9 protein; in series [1] (Rat, 0.25 mg/mL, Experiment 3) it was 299 μL/min/mg intestinal S9 protein; in series [1] (setting [17]), 278 μL/min/mg intestinal S9 protein. Moreover, the “Clint (prodrug disappearance)” value in series [2] (Dog, Experiment 1) is 10.2 μL/min/mg intestinal S9 protein; in series [2] (Dog, Experiment 2), 14.4 μL/min/mg intestinal S9 protein; in series [2] (Dog, Experiment 3) it was 11.5 μL/min/mg intestinal S9 protein; in series [2] (Dog, Mean of 3 experiments) it was 12.0 μL/min/mg intestinal S9 protein; in series [2] (Monkey, Experiment 1), 38.1 μL/min/mg intestinal S9 protein; in series [2] (Monkey, Experiment 2), 49.0 μL/min/mg intestinal S9 protein. For the same compound, the “Clint (prodrug disappearance)” value in series [2] (Monkey, Experiment 3) is 40.7 μL/min/mg intestinal S9 protein; in series [2] (Monkey, Mean of 3 experiments) it was 42.6 μL/min/mg intestinal S9 protein.
For `CN(C[C@@H](O)Cc1ccccc1)C(=O)c1cncc(C#Cc2cnn(C)c2)c1` [Example 1, (S)-N-(2-hydroxy-3-phenylpropyl)-N-methyl-5-((1-methyl-1H-pyrazol-4-yl)ethynyl)nicotinamide], in the series with U937 cells, the IC50 came to 34 nM.
For the compound `CN(C[C@H](Cc1ccccc1)OP(=O)(O)O)C(=O)c1cncc(C#Cc2cnn(C)n2)c1` [Example 23, (S)-1-(N-methyl-5-((2-methyl-2H-1,2,3-triazol-4-yl)ethynyl)nicotinamido)-3-phenylpropan-2-yl dihydrogen phosphate], the “Clint (prodrug disappearance)” value in series [1] (setting [3]) is recorded as 1180.2 μL/min/mg intestinal S9 protein; in series [1] (setting [4]) it was 243.4 μL/min/mg intestinal S9 protein; in series [1] (setting [5]), 199 μL/min/mg intestinal S9 protein; in series [1] (setting [6]) it was 241 μL/min/mg intestinal S9 protein; in series [1] (setting [7]), 203 μL/min/mg intestinal S9 protein; in series [1] (setting [8]), 214 μL/min/mg intestinal S9 protein. Further, the “Clint (prodrug disappearance)” value in series [1] (setting [9]) was <137** μL/min/mg intestinal S9 protein; in series [1] (setting [10]), 23.3 μL/min/mg intestinal S9 protein; in series [1] (setting [11]), 26.2 μL/min/mg intestinal S9 protein; in series [1] (setting [12]), 34.3 μL/min/mg intestinal S9 protein; in series [1] (setting [13]), 31.3 μL/min/mg intestinal S9 protein; in series [1] (setting [14]) it was 30.6 μL/min/mg intestinal S9 protein. Also, the “Clint (prodrug disappearance)” value in series [1] (setting [15]) is <137** μL/min/mg intestinal S9 protein; in series [1] (setting [16]), 36.7 μL/min/mg intestinal S9 protein; in series [1] (Rat, 0.25 mg/mL, Experiment 1) it was 29.1 μL/min/mg intestinal S9 protein; in series [1] (Rat, 0.25 mg/mL, Experiment 2), 33.8 μL/min/mg intestinal S9 protein; in series [1] (Rat, 0.25 mg/mL, Experiment 3), 28.2 μL/min/mg intestinal S9 protein; in series [1] (setting [17]), 30.4 μL/min/mg intestinal S9 protein. In addition, the “Clint (prodrug disappearance)” value in series [2] (Dog, Experiment 1) is listed as 354 μL/min/mg intestinal S9 protein; in series [2] (Dog, Experiment 2) it was 369 μL/min/mg intestinal S9 protein; in series [2] (Dog, Experiment 3), 345 μL/min/mg intestinal S9 protein; in series [2] (Dog, Mean of 3 experiments) it was 356 μL/min/mg intestinal S9 protein; in series [2] (Monkey, Experiment 1), 55.4 μL/min/mg intestinal S9 protein; in series [2] (Monkey, Experiment 2), 47.7 μL/min/mg intestinal S9 protein. Moreover, the “Clint (prodrug disappearance)” value in series [2] (Monkey, Experiment 3) is on record as 48.1 μL/min/mg intestinal S9 protein; in series [2] (Monkey, Mean of 3 experiments), 50.4 μL/min/mg intestinal S9 protein.
With `CN(C[C@H](Cc1ccccc1)OC(=O)CN)C(=O)c1cncc(C#Cc2cnn(C(F)F)c2)c1` [Example 21, (S)-1-(5-((1-(difluoromethyl)-1H-pyrazol-4-yl)ethynyl)-N-methylnicotinamido)-3-phenylpropan-2-yl 2-aminoacetate, hydrochloric acid], the “Clint (prodrug disappearance)” value in series [1] (setting [3]) is reported as 815.9 μL/min/mg intestinal S9 protein; in series [1] (setting [4]) it was 592.9 μL/min/mg intestinal S9 protein; in series [1] (setting [5]), 391 μL/min/mg intestinal S9 protein; in series [1] (setting [6]) it was 400 μL/min/mg intestinal S9 protein; in series [1] (setting [7]), 355 μL/min/mg intestinal S9 protein; in series [1] (setting [8]) it was 382 μL/min/mg intestinal S9 protein. Further, the “Clint (prodrug disappearance)” value in series [1] (setting [9]) is recorded as 11160 μL/min/mg intestinal S9 protein; in series [1] (setting [10]), >4166.5* μL/min/mg intestinal S9 protein; in series [1] (setting [11]) it was >480* μL/min/mg intestinal S9 protein; in series [1] (setting [12]), >480* μL/min/mg intestinal S9 protein; in series [1] (setting [13]) it was >480* μL/min/mg intestinal S9 protein; in series [1] (setting [14]), >480* μL/min/mg intestinal S9 protein. The “Clint (prodrug disappearance)” value in series [1] (setting [15]) is 2599.5 μL/min/mg intestinal S9 protein; in series [1] (setting [16]), 901.6 μL/min/mg intestinal S9 protein; in series [1] (Rat, 0.25 mg/mL, Experiment 1) it was 396 μL/min/mg intestinal S9 protein; in series [1] (Rat, 0.25 mg/mL, Experiment 2), 719 μL/min/mg intestinal S9 protein; in series [1] (Rat, 0.25 mg/mL, Experiment 3), 750 μL/min/mg intestinal S9 protein; in series [1] (setting [17]) it was 622 μL/min/mg intestinal S9 protein. The “Clint (prodrug disappearance)” value in series [2] (Dog, Experiment 1) is reported as 5.62 μL/min/mg intestinal S9 protein; in series [2] (Dog, Experiment 2) it was 16.1 μL/min/mg intestinal S9 protein; in series [2] (Dog, Experiment 3) it was 14.3 μL/min/mg intestinal S9 protein; in series [2] (Dog, Mean of 3 experiments), 12.0 μL/min/mg intestinal S9 protein; in series [2] (Monkey, Experiment 1) it was 89.6 μL/min/mg intestinal S9 protein; in series [2] (Monkey, Experiment 2), 91.3 μL/min/mg intestinal S9 protein. The “Clint (prodrug disappearance)” value in series [2] (Monkey, Experiment 3) is 90.7 μL/min/mg intestinal S9 protein; in series [2] (Monkey, Mean of 3 experiments), 90.5 μL/min/mg intestinal S9 protein.
